Source: US10125134B2 (Mirati Therapeutics, Inc., priority 2016, dated 2018)
Like-named read-outs stand apart in the source and are kept apart here.

Legend:
KRas G12C = KRas G12C (Homo sapiens, UniProt P01116, C118S/C51S/C80L/G12C); experiment: KRas G12C Modification Assay (LCMS detection of covalent adduct); format: binding; conditions: normalized percent of control; tested at 5 μM concentration for 3 hours
Method in brief: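 Cys-light KRas G12C mutant protein incubated with compound in K-Ras assay buffer, reactions quenched at set time points with 25 mM acetic acid and analysed by intact-protein LC/MS on a C-3 column. Deconvoluted mass heights expressed as percent of control (POC) relative to compound-free protein.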

[1] = system: NCI-H358 cells (express KRas G12C), Phospho-ERK; experiment: Cellular inhibition of KRas G12C: Phospho-ERK in NCI-H358 cells; format: cell-based; conditions: pERK(Thr202/Tyr204) normalized with GAPDH, NCI-H358 cells, 3 hours, read-out: IC50
Method in brief: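 IC50 derived by 4-parameter fit of GAPDH-normalized pERK(Thr202/Tyr204) signal, as percent of DMSO control. Signal came from in-cell immunodetection with infrared secondaries after 3 h compound exposure of KRas G12C NCI-H358 cells at 0.5% DMSO.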

Row | Compound | POC (KRas G12C) | IC50 ([1]; Homo sapiens, NCI-H358, 3 h) [nM] | IC50 [1] [nM] | IC50 ([1]; Homo sapiens) [nM]
1 | C=CC(=O)N1CCN(c2nc(O[C@H](C)[C@H]3CCCN3C)nc3c2CCN(c2cc(O)cc4ccccc24)C3)C[C@@H]1CC#N [Example 348, 2-[(2S)-4-[7-(3-hydroxy-1-naphthyl)-2-[(1R)-1-[(2R)-1-methylpyrrolidin-2-yl]ethoxy]-6,8-dihydro-5H-pyrido[3,4-d]pyrimidin-4-yl]-1-prop-2-enoyl-piperazin-2-yl]acetonitrile] | C (“C”>50% POC) | 0.1 to 1000 |  | 
2 | C=CC(=O)N1CCN(c2nc(OC[C@@H]3CCCN3C)nc3c2CCN(c2cccc(OC)c2C(F)(F)F)C3)C[C@@H]1CC#N [Example 330, 2-[(2S)-4-[7-[3-methoxy-2-(trifluoromethyl)phenyl]-2-[[(2S)-1-methylpyrrolidin-2-yl]methoxy]-6,8-dihydro-5H-pyrido[3,4-d]pyrimidin-4-yl]-1-prop-2-enoyl-piperazin-2-yl]acetonitrile] | C (“C”>50% POC) | 0.1 to 1000 |  | 
3 | C=CC(=O)N1CCN(c2nc(OC[C@@H]3CCCN3C)nc3c2CCN(c2cccc(Cl)c2C(F)(F)F)C3)CC1CC#N (stereo partly drawn) [Example 413, 2-(1-acryloyl-4-(7-(3-chloro-2-(trifluoromethyl)phenyl)-2-(((S)-1-methylpyrrolidin-2-yl)methoxy)-5,6,7,8-tetrahydropyrido[3,4-d]pyrimidin-4-yl)piperazin-2-yl)acetonitrile] | C (“C”>50% POC) |  | 0.1 to 1000 | 
4 | C=CC(=O)N1CCN(c2nc(OC[C@@H]3CCCN3C)nc3c2CCN(c2c(C(F)(F)F)ccc4[nH]ncc24)C3)CC1 [Example 156, (S)-1-(4-(2-((1-methylpyrrolidin-2-yl)methoxy)-7-(5-(trifluoromethyl)-1H-indazol-4-yl)-5,6,7,8-tetrahydropyrido[3,4-d]pyrimidin-4-yl)piperazin-1-yl)prop-2-en-1-one] | C (“C”>50% POC) | 0.1 to 1000 |  | 
5 | C=CC(=O)N1CCN(c2nc(OC[C@@H]3CCCN3C)nc3c2CCN(c2c(O)cccc2F)C3)[C@@H](C)C1 [Example 321, 1-[(3S)-4-[7-(2-fluoro-6-hydroxy-phenyl)-2-[[(2S)-1-methylpyrrolidin-2-yl]methoxy]-6,8-dihydro-5H-pyrido[3,4-d]pyrimidin-4-yl]-3-methyl-piperazin-1-yl]prop-2-en-1-one] | B (“B”>25% POC−≤50% POC) | > 1000 |  | 
6 | C=CC(=O)N1CCN(c2nc(O[C@H](C)CN(C)C)nc3c2CCN(c2cc(O)cc4ccccc24)C3)[C@@H](C)C1 [Example 115, 1-((S)-4-(2-(((R)-1-(dimethylamino)propan-2-yl)oxy)-7-(3-hydroxynaphthalen-1-yl)-5,6,7,8-tetrahydropyrido[3,4-d]pyrimidin-4-yl)-3-methylpiperazin-1-yl)prop-2-en-1-one] | C (“C”>50% POC) |  |  | 0.1 to 1000
7 | C=CC(=O)N1CCN(c2nc(OC[C@H]3CCCC(=O)N3)nc3c2CCN(c2cc(O)cc4ccccc24)C3)CC1 (single isomer, unassigned) [Example 62] | C (“C”>50% POC) | > 1000 |  | 
8 | C=CC(=O)N1CCN(c2nc(OCC(O)CN3CCOCC3)nc3c2CCN(c2cc(O)cc4ccccc24)C3)CC1 (centres unmarked) [Example 123, 1-(4-(2-(2-hydroxy-3-morpholinopropoxy)-7-(3-hydroxynaphthalen-1-yl)-5,6,7,8-tetrahydropyrido[3,4-d]pyrimidin-4-yl)piperazin-1-yl)prop-2-en-1-one] | A (“A”≤25% POC) | > 1000 |  | 
9 | C=CC(=O)N1CCN(c2nc(OCCN3CCCCC3)nc3c2CCN(c2cccc4cccc(Cl)c24)C3)C[C@@H]1CC#N [Example 362, 2-[(2S)-4-[7-(8-chloro-1-naphthyl)-2-[2-(1-piperidyl)ethoxy]-6,8-dihydro-5H-pyrido[3,4-d]pyrimidin-4-yl]-1-prop-2-enoyl-piperazin-2-yl]acetonitrile] | C (“C”>50% POC) | 0.1 to 1000 |  | 
10 | C=CC(=O)N1CCN(c2nc(OCCN3CC(F)(F)C3)nc3c2CCN(c2cc(O)cc4ccccc24)C3)CC1 [Example 138, 1-[4-[2-[2-(3,3-difluoroazetidin-1-yl)ethoxy]-7-(3-hydroxy-1-naphthyl)-6,8-dihydro-5H-pyrido[3,4-d]pyrimidin-4-yl]piperazin-1-yl]prop-2-en-1-one] | C (“C”>50% POC) | > 1000 |  | 
11 | C=CC(=O)N1CCN(c2nc(OCCCN3CCOCC3)nc3c2CCN(c2cc(O)cc4ccccc24)C3)CC1 [Example 74, 1-(4-(7-(3-hydroxynaphthalen-1-yl)-2-(3-morpholinopropoxy)-5,6,7,8-tetrahydropyrido[3,4-d]pyrimidin-4-yl)piperazin-1-yl)prop-2-en-1-one] | C (“C”>50% POC) | 0.1 to 1000 |  | 
12 | C=CC(=O)N1CCN(c2nc(OCCN3C[C@@H]4CC[C@H]3C4)nc3c2CCN(c2cc(O)cc4ccccc24)C3)CC1 [Example 77, 1-(4-(2-(2-((1 S,4R)-2-azabicyclo[2.2.1]heptan-2-yl)ethoxy)-7-(3-hydroxynaphthalen-1-yl)-5,6,7,8-tetrahydropyrido[3,4-d]pyrimidin-4-yl)piperazin-1-yl)prop-2-en-1-one] | C (“C”>50% POC) | 0.1 to 1000 |  | 
13 | C=CC(=O)N1CCN(c2nc(OCCNC(C)=O)nc3c2CCN(c2cc(O)cc4ccccc24)C3)CC1 [Example 59, N-(2-((4-(4-acryloylpiperazin-1-yl)-7-(3-hydroxynaphthalen-1-yl)-5,6,7,8-tetrahydropyrido[3,4-d]pyrimidin-2-yl)oxy)ethyl)acetamide] | C (“C”>50% POC) | > 1000 |  | 
14 | C=CC(=O)N1CCN(c2nc(OCC3CCN(C4CC4)C3)nc3c2CCN(c2cc(O)cc4ccccc24)C3)CC1 (centres unmarked) [Example 190, 1-(4-(2-((1-cyclopropylpyrrolidin-3-yl)methoxy)-7-(3-hydroxynaphthalen-1-yl)-5,6,7,8-tetrahydropyrido[3,4-d]pyrimidin-4-yl)piperazin-1-yl)prop-2-en-1-one] | C (“C”>50% POC) | 0.1 to 1000 |  | 
15 | Cc1cccc2cccc(N3CCc4c(nc(OCCC(=O)N(C)C)nc4N4CCN(C(=O)/C=C/CN(C)C)[C@@H](CC#N)C4)C3)c12 [Example 460, (S,E)-3-((4-(3-(cyanomethyl)-4-(4-(dimethylamino)but-2-enoyl)piperazin-1-yl)-7-(8-methylnaphthalen-1-yl)-5,6,7,8-tetrahydropyrido[3,4-d]pyrimidin-2-yl)oxy)-N,N-dimethylpropanamide] | C (“C”>50% POC) |  |  | 0.1 to 1000

Second part, led by results:

Row | POC (KRas G12C) | Compound | IC50 ([1]; Homo sapiens, NCI-H358, 3 h) [nM] | IC50 [1] [nM] | IC50 ([1]; Homo sapiens) [nM]
16 | C (“C”>50% POC) | C#CC[C@H]1CN(c2nc(OC[C@@H]3CCCN3C)nc3c2CCN(c2cccc4ccccc24)C3)CCN1C(=O)C=C [Example 358, 1-[(2S)-4-[2-[[(2S)-1-methylpyrrolidin-2-yl]methoxy]-7-(1-naphthyl)-6,8-dihydro-5H-pyrido[3,4-d]pyrimidin-4-yl]-2-prop-2-ynyl-piperazin-1-yl]prop-2-en-1-one] | 0.1 to 1000 |  | 
17 | C (“C”>50% POC) | C=CC(=O)N1CCN(c2nc(OC[C@@H]3CCCN3C)nc3c2CCN(c2cccc4cccnc24)C3)CC1CC#N (stereo partly drawn) [Example 247, 2-(1-acryloyl-4-(2-(((S)-1-methylpyrrolidin-2-yl)methoxy)-7-(quinolin-8-yl)-5,6,7,8-tetrahydropyrido[3,4-d]pyrimidin-4-yl)piperazin-2-yl)acetonitrile] | > 1000 |  | 
18 | C (“C”>50% POC) | C=CC(=O)N1CCN(c2nc(OC[C@@H]3CCCN3CCOC)nc3c2CCN(c2cccc4ccccc24)C3)CC1CC#N (stereo partly drawn) [Example 266, 2-(1-acryloyl-4-(2-(((S)-1-(2-methoxyethyl)pyrrolidin-2-yl)methoxy)-7-(naphthalen-1-yl)-5,6,7,8-tetrahydropyrido[3,4-d]pyrimidin-4-yl)piperazin-2-yl)acetonitrile] | 0.1 to 1000 |  | 
19 | C (“C”>50% POC) | C=CC(=O)N1CCN(c2nc(OC[C@H]3CCCN3C)nc3c2CCN(c2cc(O)cc4ccccc24)C3)C[C@@H]1CC#N [Example 344, 2-[(2S)-4-[7-(3-hydroxy-1-naphthyl)-2-[[(2R)-1-methylpyrrolidin-2-yl]methoxy]-6,8-dihydro-5H-pyrido[3,4-d]pyrimidin-4-yl]-1-prop-2-enoyl-piperazin-2-yl]acetonitrile] | 0.1 to 1000 |  | 
20 | C (“C”>50% POC) | C=CC(=O)N1CCN(c2nc(OC[C@@H]3COCCN3C)nc3c2CCN(c2cccc4ccccc24)C3)CC1CC#N (stereo partly drawn) [Example 272, 2-(1-acryloyl-4-(2-(((S)-4-methylmorpholin-3-yl)methoxy)-7-(naphthalen-1-yl)-5,6,7,8-tetrahydropyrido[3,4-d]pyrimidin-4-yl)piperazin-2-yl)acetonitrile] | 0.1 to 1000 |  | 
21 | C (“C”>50% POC) | C=CC(=O)N1CCN(c2nc(OC[C@@H]3CCCN3C)nc3c2CCN(c2ccccc2OC(F)(F)F)C3)CC1CC#N (stereo partly drawn) [Example 211, 2-(1-acryloyl-4-(2-(((S)-1-methylpyrrolidin-2-yl)methoxy)-7-(2-(trifluoromethoxy)phenyl)-5,6,7,8-tetrahydropyrido[3,4-d]pyrimidin-4-yl)piperazin-2-yl)acetonitrile] | 0.1 to 1000 |  | 
22 | C (“C”>50% POC) | C=CC(=O)N1CCN(c2nc(OC[C@H]3CN(C)C4(CC4)CO3)nc3c2CCN(c2cccc4ccccc24)C3)C[C@@H]1CC#N [Example 446, 2-((S)-1-Acryloyl-4-(2-(((R)-4-methyl-7-oxa-4-azaspiro[2.5]octan-6-yl)methoxy)-7-(naphthalen-1-yl)-5,6,7,8-tetrahydropyrido[3,4-d]pyrimidin-4-yl)piperazin-2-yl)acetonitrile] | 0.1 to 1000 |  | 
